Active and inactive are the calls of the source.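 How the source made its calls: active means more than half of replicate measurements showing over 20% loss of kinase signal relative to plate controls; inconclusive means some but at most half of replicates over 20% loss; inactive means no replicate over 20% signal loss.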
Target: Glycogen synthase kinase-3 alpha (Homo sapiens) (UniProt P49840)
Assay: concentration-response blocking of human GSK3A – biochemical, luminescence, cell-free homogeneous, retest, dose response (AID 463203)
Settings: GSK-3 alpha enzyme, ADP-Glo luminescence, 60 min

Sequence of Glycogen synthase kinase-3 alpha (Homo sapiens) (P49840 whole entry, looked up): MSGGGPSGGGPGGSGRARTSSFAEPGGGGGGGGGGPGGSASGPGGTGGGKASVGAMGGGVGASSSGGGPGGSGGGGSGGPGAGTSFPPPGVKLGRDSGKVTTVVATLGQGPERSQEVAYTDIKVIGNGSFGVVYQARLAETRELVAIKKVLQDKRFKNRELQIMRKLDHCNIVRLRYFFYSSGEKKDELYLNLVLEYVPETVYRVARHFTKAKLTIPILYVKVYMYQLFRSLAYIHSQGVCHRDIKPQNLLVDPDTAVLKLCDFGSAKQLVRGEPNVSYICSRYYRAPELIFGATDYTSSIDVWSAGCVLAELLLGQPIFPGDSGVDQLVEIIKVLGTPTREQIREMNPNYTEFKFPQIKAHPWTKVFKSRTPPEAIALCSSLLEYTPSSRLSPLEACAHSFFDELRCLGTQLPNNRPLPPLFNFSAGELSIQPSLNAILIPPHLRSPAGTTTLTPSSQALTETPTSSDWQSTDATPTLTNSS

In the case of `O=C(Nc1cc(F)cc(F)c1)c1ccc(NCCCN2CCCCCC2)c([N+](=O)[O-])c1`, the AC50 is reported as > 30 µM (inactive).

In the case of `CC(C)(C)c1cc(-c2nc(N)nc(N)n2)c(O)c(C(C)(C)C)c1`, the AC50 is reported as > 30 µM (inactive).

For `Cc1cccc(C(=O)Nc2nccs2)c1[N+](=O)[O-]`, the AC50 was > 30 µM (inactive).

`CC1CCc2c(sc(NC(=O)CCCn3cnc([N+](=O)[O-])n3)c2C(N)=O)C1` (stereo not drawn) was tested, and the AC50 was > 30 µM (inactive).

For `CC1(C)CC(=O)C(C2c3ccccc3S(=O)(=O)c3ccccc32)C(=O)C1`, the AC50 was > 30 µM (inactive).

For `O=C1c2cnc3nc(SCc4ccc(Cl)cc4)nn3c2CC2c3ccccc3CCN12` (stereo not drawn), the AC50 was > 30 µM (inactive).

With `Cc1ccc2c(c1)COc1c3ccc(C(=O)N4CCCCC4)cc3nn1-2` the AC50 was > 30 µM (inactive).

Molecule `Cc1cc(NS(=O)(=O)c2ccc(Nc3nc(-c4ccc(O)cc4)cs3)cc2)no1` has an AC50 of 15.3 µM.

`COC(=O)c1sccc1NC(=O)c1ccccc1` was tested, and the AC50 was > 30 µM (inactive).

For `CC1=C(C(=O)OCc2ccc3c(c2)OCO3)C(c2ccccc2OCc2ccccc2)NC(=O)N1` (stereo not drawn), the AC50 was > 30 µM (inactive).

`CCOC1(OCC)N=C(N)C2(C#N)C(c3cccc(C)c3)C12C#N` (stereo not drawn) was tested, and the AC50 was > 30 µM (inactive).

`CC1CN(c2nc(Nc3ccccc3F)nc(N)c2[N+](=O)[O-])CC(C)O1` (stereo not drawn) was tested, and the AC50 was 9.19 µM.

`CC1=C(C#N)c2nc(N)c(C#N)c(C)c2/C1=C\c1ccc(OCC(=O)O)c(Cl)c1` gave an AC50 of 20.4 µM.

`CCOC(=O)C1CCN(c2c(C(=O)c3ccccc3)cnc3ccc(CC)cc23)CC1` was tested, and the AC50 was > 30 µM (inactive).

`NC(=O)c1ccc(N=C2C(=O)Nc3ccc([N+](=O)[O-])cc32)cc1` was tested, and the AC50 was > 30 µM (inactive).

`O=C(O)c1ccc(Cl)c(NC(=O)C2CCCN2S(=O)(=O)c2cccc3nsnc23)c1` (stereo not drawn) was tested, and the AC50 was 19.1 µM.

`O=[N+]([O-])c1cccnc1NCCc1ccccc1` was tested, and the AC50 was > 30 µM (inactive).

`O=c1cc(-c2ccc(O)c(O)c2)oc2c1ccc1ccccc12` showed an AC50 of 5.66 µM.

In the case of `COc1ccc(NC(=O)Nc2cc(F)ccc2C)cc1`, the AC50 is reported as > 30 µM (inactive).

`CCN=C(NC#N)SCc1c(F)cccc1Cl` was tested, and the AC50 was > 30 µM (inactive).

With `COc1ccc(-c2nc(NC(=O)C3CC(=O)N(c4ccc5c(c4)OCCO5)C3)sc2C)cc1` (stereo not drawn) the AC50 was > 30 µM (inactive).

For `Cc1cnn(-c2cc(N/N=C/c3ccc(F)cc3)ncn2)c1`, the AC50 was > 30 µM (inactive).

In the case of `O=C1NC(=Nc2ccccc2)S/C1=C\c1cccs1`, the AC50 is reported as > 30 µM (inactive).

With `C#CCSc1nnc(-c2ccc(O)cc2)o1` the AC50 was 25.5 µM.

For `Nc1nonc1-n1nnc(C(=O)N/N=C/c2ccc(F)cc2)c1-c1cccs1`, the AC50 was 1.05 µM.

With `CCC(C)Sc1nc2c(c(=O)[nH]1)C(c1cccs1)C1=C(CCCC1=O)N2` (stereo not drawn) the AC50 was > 30 µM (inactive).

With `NC(=O)c1oc2ccccc2c1NC(=O)c1ccc(F)cc1` the AC50 was > 30 µM (inactive).

For `CCOc1ccc(Cn2nnc(C(=O)Nc3cc(C)cc(C)c3)c2N)cc1`, the AC50 was > 30 µM (inactive).

In the case of `NC(=O)NCC12CC3CC(CC(C3)C1)C2`, the AC50 is reported as > 30 µM (inactive).

`COc1ccc(NC(=O)CSc2nnc(-c3cccc(O)c3)o2)cc1` was tested, and the AC50 was > 30 µM (inactive).

`CCCCOC(=O)c1ccc(N/C(=N\S(=O)(=O)c2ccccc2)c2ccccc2)cc1` was tested, and the AC50 was > 30 µM (inactive).

In the case of `O=C(COC(=O)Cc1ccsc1)Nc1ccc(Cl)cn1`, the AC50 is reported as 28.4 µM.

For `CCOc1cccc(-c2c(C(=O)N/N=C/c3ccco3)nnn2-c2nonc2N)c1`, the AC50 was 10.5 µM.

`COc1ccc(-n2c(O)c(C(C)=NCCCn3ccnc3)c(=O)[nH]c2=O)cc1` showed an AC50 of 19 µM.

In the case of `N#Cc1c(-c2ccccc2Cl)c2c([nH]c1=O)-c1ccccc1OC2`, the AC50 is reported as > 30 µM (inactive).

`O=C(NCCCCCCNC(=O)OCCO)OCCO` was tested, and the AC50 was > 30 µM (inactive).

In the case of `CN1/C(=C\C=C\C2=[N+](C)c3ccc4ccccc4c3C2(C)C)C(C)(C)c2ccccc21`, the AC50 is reported as 10.3 µM.

For `O=C1c2cnc3nc(SCc4ccccc4)nn3c2CC2c3ccccc3CCN12` (stereo not drawn), the AC50 was > 30 µM (inactive).

For `COc1ccc(Cn2nnc(C(=O)Nc3ccc(F)cc3)c2N)cc1`, the AC50 was > 30 µM (inactive).

`CCC(=O)NC(=S)Nc1cccc(C(C)=O)c1` was tested, and the AC50 was > 30 µM (inactive).

With `CC(=O)Nc1ccc(-c2csc(NCc3ccccc3)n2)cc1` the AC50 was > 30 µM (inactive).

With `CCOC(=O)N1CCC(N2CCN(S(=O)(=O)c3ccc([N+](=O)[O-])cc3)CC2)CC1` the AC50 was > 30 µM (inactive).

In the case of `CCCCN(CCCC)c1cn[nH]c(=O)c1Cl`, the AC50 is reported as 11.2 µM.

In the case of `NC(=O)c1ccsc1NC(=O)C1CC1`, the AC50 is reported as > 30 µM (inactive).

For `Cc1ccc(/C=N/NC(=O)c2nnn(-c3nonc3N)c2CN(C)C2CCCCC2)cc1`, the AC50 was > 30 µM (inactive).

In the case of `COc1ccc(CC(=O)Oc2ccc(C)cc2C)cc1`, the AC50 is reported as > 30 µM (inactive).

`COc1cccc(C(=O)O/N=C(\N)c2ccccn2)c1OC` was tested, and the AC50 was > 30 µM (inactive).

With `COc1cc(/C=c2\s/c(=C\C(=O)C(C)(C)C)[nH]c2=O)cc(OC)c1OC` the AC50 was > 30 µM (inactive).

`C[C@H](CO)N1C[C@H](C)[C@@H](CN(C)S(=O)(=O)c2ccc(F)cc2)Oc2c(NC(=O)Nc3ccccc3)cccc2C1=O` was tested, and the AC50 was > 30 µM (inactive).

For `O=C(Nc1cccc(-c2cnc3ccccc3n2)c1)c1cccc(NC(=O)c2ccco2)c1`, the AC50 was > 30 µM (inactive).

In the case of `Cc1ccc(-n2nnnc2SCc2nnc(-c3ccccc3Br)o2)cc1`, the AC50 is reported as > 30 µM (inactive).

In the case of `O=C(NCCCn1ccnc1)C(F)(F)C(F)(F)C(=O)NCCCn1ccnc1`, the AC50 is reported as > 30 µM (inactive).

`O=C(Cc1c(F)cccc1Cl)Nc1ncc([N+](=O)[O-])s1` was tested, and the AC50 was 2.43 µM.

For `O=C(O)Cn1c(=O)c2c3c(sc2n(Cc2ccc(Cl)cc2Cl)c1=O)CCCC3`, the AC50 was > 30 µM (inactive).

`O=C1CNC(=S)N1CCCn1ccnc1` was tested, and the AC50 was > 30 µM (inactive).

In the case of `CC(=O)Nc1ccc2nsnc2c1`, the AC50 is reported as > 30 µM (inactive).

For `Cc1cc(C)c(/C=N/NC(=O)c2nnn(-c3nonc3N)c2CN2CCC(C)CC2)c(C)c1`, the AC50 was > 30 µM (inactive).

For `CCn1c2ccccc2c2nnc(SCC(N)=O)nc21`, the AC50 was 15.4 µM.

With `CN1CCN(c2nc(NCc3ccco3)nc(N)c2[N+](=O)[O-])CC1` the AC50 was > 30 µM (inactive).

With `Cc1ccc(CSc2ccc3nnc(-c4cccnc4)n3n2)cc1` the AC50 was > 30 µM (inactive).

`COc1ccc(C(=O)Nc2nc(C)c(C)s2)cc1OC` was tested, and the AC50 was > 30 µM (inactive).

In the case of `Cc1cccc(C)c1OCC(O)CNC(C)(C)C` (stereo not drawn), the AC50 is reported as > 30 µM (inactive).

For `O=C1NC(=Nc2ccccc2Cl)S/C1=C\c1cccc([N+](=O)[O-])c1`, the AC50 was > 30 µM (inactive).

In the case of `Cc1ccc(N=C2NC(=O)/C(=C\c3ccc(C)s3)S2)cc1`, the AC50 is reported as > 30 µM (inactive).

`Cc1csc(NC(=O)/C=C/c2ccc3c(c2)OCO3)n1` was tested, and the AC50 was > 30 µM (inactive).

With `O=C(Nc1cccc(-c2cnc3ccccc3n2)c1)c1ccco1` the AC50 was > 30 µM (inactive).

For `O=C(COC(=O)c1cc(S(=O)(=O)N2CCOCC2)ccc1F)Nc1ccc(Cl)cn1`, the AC50 was 2.72 µM.

`O=C(CSCCO)Nc1ccc([N+](=O)[O-])cc1` was tested, and the AC50 was > 30 µM (inactive).

In the case of `Nc1ncnc2c1ncn2[C@H]1C[C@H](O)[C@@H](CO)O1`, the AC50 is reported as > 30 µM (inactive).

For `Cc1cccc(N2CCN(C(=O)c3cc4c(=O)[nH]c5ccccc5c4n3C)CC2)c1C`, the AC50 was > 30 µM (inactive).

For `COc1ccc(C(=O)c2ccccc2Cl)cc1`, the AC50 was > 30 µM (inactive).

With `COCCCNc1nc2ccccc2[nH]c1=O` the AC50 was > 30 µM (inactive).

With `CN1/C(=C\C=C(C#N)C#N)C(C)(C)c2ccccc21` the AC50 was > 30 µM (inactive).

For `CN1/C(=C/C(=S)NC(=O)C2CCC2)C(C)(C)c2ccccc21`, the AC50 was > 30 µM (inactive).

For `Cc1ccc(N(CC(O)CN2CCCCC2)S(=O)(=O)c2ccccc2)cc1` (stereo not drawn), the AC50 was > 30 µM (inactive).

`COc1ccc2cc(C(N)=O)c(=Nc3ccccc3)oc2c1` was tested, and the AC50 was > 30 µM (inactive).

In the case of `CCN1CCN(c2nc(N)c([N+](=O)[O-])c(Nc3ccc(C)c(C)c3)n2)CC1`, the AC50 is reported as > 30 µM (inactive).

In the case of `CCN1CCN(c2nc(Nc3ccc(C)c(C)c3)nc(N)c2[N+](=O)[O-])CC1`, the AC50 is reported as > 30 µM (inactive).

For `CC(C)(C)NC(=O)CSc1ncccc1-c1nc2ccccc2[nH]1`, the AC50 was > 30 µM (inactive).

`Oc1ccc2oc3c(c2c1C=NCc1ccncc1)CCCC3` was tested, and the AC50 was > 30 µM (inactive).

In the case of `CCN1C(=O)/C(=C\c2ccco2)C(C(=O)OC)=C1C`, the AC50 is reported as > 30 µM (inactive).

`COc1ccccc1N/C=C/c1onc(C)c1[N+](=O)[O-]` was tested, and the AC50 was > 30 µM (inactive).

With `O=C(c1cccnc1NCc1ccccc1)N1CCOCC1` the AC50 was > 30 µM (inactive).

In the case of `CCOC(=O)c1c(NC(=O)CN2C(=O)NC3(CCCCC3C)C2=O)sc(C)c1C` (stereo not drawn), the AC50 is reported as > 30 µM (inactive).

With `O=C(Nc1nccs1)C1CCN(S(=O)(=O)c2cnc[nH]2)CC1` the AC50 was > 30 µM (inactive).

For `N#C/C(=N\Nc1c(Cl)cccc1Cl)C(=O)NN`, the AC50 was 5.86 µM.

In the case of `Cc1ccc(C(=O)N/N=c2\oc3ccccc3cc2C(N)=O)cc1`, the AC50 is reported as > 30 µM (inactive).

In the case of `COc1cccc(/C=N/Nc2ccc([N+](=O)[O-])cn2)c1O`, the AC50 is reported as > 30 µM (inactive).

For `CCN1C(=O)C(=C/C=C/c2ccco2)C(=O)N(CC)C1=S`, the AC50 was > 30 µM (inactive).

Molecule `Cc1ccc(S(=O)(=O)CCSc2n[nH]c(=O)n2-c2ccccc2)cc1` has an AC50 of 11.8 µM.

For `Cc1sc2ncnc(NCCN3CCOCC3)c2c1C`, the AC50 was > 30 µM (inactive).

With `Cn1c2ccc(F)cc2c2nc3ccccc3nc21` the AC50 was > 30 µM (inactive).

For `Cn1c(SCc2nc(-c3ccc(Cl)cc3)no2)nnc1-c1ccccc1`, the AC50 was > 30 µM (inactive).

For `CC(C(=O)Nc1cccc(Br)c1)c1ccc([N+](=O)[O-])cc1` (stereo not drawn), the AC50 was > 30 µM (inactive).

`COc1ccc(C2CC(=O)N3CN(c4ccccc4F)CSC3=C2C#N)cc1OC` (stereo not drawn) was tested, and the AC50 was > 30 µM (inactive).

For `O=C(N/N=C/c1ccccn1)c1cccc(NC(=O)c2ccccc2Cl)c1`, the AC50 was 15.9 µM.

With `COc1ccc(-c2cc(C(F)(F)F)nc(SCCC(=O)NCc3ccco3)n2)cc1` the AC50 was > 30 µM (inactive).

`CC(=O)Nc1ccc(NC(=O)CSc2nnc(-c3ccc4c(c3)OCO4)o2)cc1` was tested, and the AC50 was 2.61 µM.

For `CCCc1cc(C(N)=O)c(NC(=O)C2CCCO2)s1` (stereo not drawn), the AC50 was > 30 µM (inactive).

With `COC(=O)[C@@H]1[C@H](CCc2ccccc2)NC(=O)N(Cc2ccccc2)[C@@H]1C` the AC50 was > 30 µM (inactive).

`NCc1cccc(CNc2ccc([N+](=O)[O-])cc2C(N)=O)c1` showed an AC50 of 5.96 µM.

With `CCN1C(=O)/C(=C/c2cccs2)N(C)C1=S` the AC50 was > 30 µM (inactive).

`Cc1csc(NC(=O)C2CCCN2C(=O)OCC(C)C)n1` (stereo not drawn) was tested, and the AC50 was > 30 µM (inactive).
